Test: Fluoroscopic video-radiography of taking a barium-filled No. 2 capsule, mouth to stomach
Assay type: in vivo
Details: patient with difficulty in swallowing; barium-filled No. 2 capsule with about 20 ml of drink
Method: First, the purpose of this test was explained to a patient (the person) who had difficulty in swallowing when taking medicines with water, and their consent was acquired.
Next, barium powder was filled up in a No. 2 capsule and the capsule was used as a placebo. The placebo was taken by the patient with about 20 ml of the swallowing-assistive drink of the present invention, while fluoroscopic video-radiographs of the conditions of taking this medicine were taken by scanning from the mouth to the stomach of the patient. The image information obtained was put into a personal computer and the time-course changes were analyzed as still image data of two sheets a second.

With O [water] the “time to move from the mouth to the stomach” value was “about 18 sec”.
